# Measured values taken from ChEMBL document CHEMBL3526033, “Identification of human liver cytochrome P450 enzymes involved in the metabolism of SCH 530348 (Vorapaxar), a potent oral thrombin protease-activated receptor 1 antagonist” (Drug Metab Dispos, 2011).
# Experiments:
# [1] = Drug level in human intestine microsomes treated with 25 uM vorapaxar after 120 mins by LC-MS/MS analysis in presence of NADPH; assay type: ADME; conditions: 2 h
# [2] = Drug level in human lung microsomes treated with 25 uM vorapaxar after 120 mins by LC-MS/MS analysis in presence of NADPH; assay type: ADME, microsome; conditions: 2 h
# Cytochrome P450 2C18 = Cytochrome P450 2C18 (Homo sapiens, UniProt P33260); assay: Activity of human recombinant CYP2C18 assessed as enzyme-mediated drug metabolism treated with 25 uM vorapaxar after 120 mins by LC-MS/MS analysis in presence of NADPH; assay type: ADME; conditions: 2 h
# Cytochrome P450 2C18, sequence (P33260 whole entry): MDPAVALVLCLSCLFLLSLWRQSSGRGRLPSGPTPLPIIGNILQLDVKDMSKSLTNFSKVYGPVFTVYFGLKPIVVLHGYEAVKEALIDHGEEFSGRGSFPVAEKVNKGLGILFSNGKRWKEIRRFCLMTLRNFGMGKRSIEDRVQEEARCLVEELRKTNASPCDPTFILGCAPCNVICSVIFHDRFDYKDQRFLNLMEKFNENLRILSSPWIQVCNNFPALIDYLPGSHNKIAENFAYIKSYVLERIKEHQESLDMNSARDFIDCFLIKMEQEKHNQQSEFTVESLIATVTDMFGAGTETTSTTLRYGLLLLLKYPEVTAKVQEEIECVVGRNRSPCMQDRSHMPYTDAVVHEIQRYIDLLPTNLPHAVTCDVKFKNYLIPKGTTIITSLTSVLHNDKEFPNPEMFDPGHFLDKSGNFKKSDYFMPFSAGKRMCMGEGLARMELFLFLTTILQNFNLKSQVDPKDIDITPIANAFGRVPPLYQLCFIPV
# Cytochrome P450 4F3 = target: T1, Cytochrome P450 4F3 (Homo sapiens, UniProt Q08477); assay: Activity of human recombinant CYP4F3A assessed as enzyme-mediated drug metabolism treated with 25 uM vorapaxar after 120 mins by LC-MS/MS analysis in presence of NADPH; assay type: ADME; conditions: 2 h
# T1 sequence (Q08477 whole entry): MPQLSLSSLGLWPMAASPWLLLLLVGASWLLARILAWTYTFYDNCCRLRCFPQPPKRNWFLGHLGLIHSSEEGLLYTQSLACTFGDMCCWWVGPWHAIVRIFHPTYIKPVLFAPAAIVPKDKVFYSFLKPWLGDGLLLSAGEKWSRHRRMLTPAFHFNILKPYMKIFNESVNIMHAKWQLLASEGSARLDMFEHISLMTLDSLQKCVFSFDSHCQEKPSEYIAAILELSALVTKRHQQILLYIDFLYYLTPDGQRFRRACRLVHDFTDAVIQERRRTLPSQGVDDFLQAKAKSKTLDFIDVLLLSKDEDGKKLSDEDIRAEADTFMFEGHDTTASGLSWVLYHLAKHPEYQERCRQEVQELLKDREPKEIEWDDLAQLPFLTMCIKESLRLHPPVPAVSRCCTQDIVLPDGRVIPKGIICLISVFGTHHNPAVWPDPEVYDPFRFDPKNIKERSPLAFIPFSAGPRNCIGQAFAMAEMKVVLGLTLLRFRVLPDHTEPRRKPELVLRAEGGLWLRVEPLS
# Liver microsome [3] = assay: Drug metabolism in human liver microsomes assessed as 2-hydroxyethyl (1R,3aR,4aR,6R,8aR,9S,9aS)-9-((E)-2-(5-(3-fluorophenyl)pyridin-2-yl)vinyl)-1-methyl-3-oxododecahydronaphtho[2,3-c]furan-6-ylcarbamate formation at 25 uM after 120 mins by LC-MS/MS analysis in presence of NADPH; assay type: ADME; conditions: 2 h
# Liver microsome [4] = assay: Drug metabolism in human liver microsomes assessed as 2-hydroxyethyl (1R,3aR,4aR,6R,8aR,9S,9aS)-9-((E)-2-(5-(3-fluorophenyl)pyridin-2-yl)vinyl)-1-methyl-3-oxododecahydronaphtho[2,3-c]furan-6-ylcarbamate formation at 25 uM after 120 mins by LC-MS/MS analysis; assay type: ADME; conditions: 2 h
# [5] = Drug metabolism in human intestine microsomes assessed as 2-hydroxyethyl (1R,3aR,4aR,6R,8aR,9S,9aS)-9-((E)-2-(5-(3-fluorophenyl)pyridin-2-yl)vinyl)-1-methyl-3-oxododecahydronaphtho[2,3-c]furan-6-ylcarbamate formation at 25 uM after 120 mins by LC-MS/MS analysis in presence of NADPH; assay type: ADME; conditions: 2 h
# Liver microsome [6] = assay: Drug metabolism in human liver microsomes assessed as (3R,3aS,4S,4aR,7R,8aR,9aR)-7-amino-4-((E)-2-(5-(3-fluorophenyl)pyridin-2-yl)vinyl)-3-methyldecahydronaphtho[2,3-c]furan-1(3H)-one formation at 10 to 25 uM after 120 mins by LC-MS/MS analysis in presence of omeprazole; assay type: ADME; conditions: 2 h
# Liver microsome [7] = assay: Drug metabolism in human liver microsomes overexpressing CYP3A4 assessed as (3R,3aS,4S,4aR,7R,8aR,9aR)-7-amino-4-((E)-2-(5-(3-fluorophenyl)pyridin-2-yl)vinyl)-3-methyldecahydronaphtho[2,3-c]furan-1(3H)-one formation at 25 uM after 120 mins by LC-MS/MS analysis in presence of ticlopidine; assay type: ADME; conditions: 2 h
# CYP1A2 = CYP1A2 (Homo sapiens, UniProt P05177); assay: Activity of human recombinant CYP1A2 assessed as enzyme-mediated drug metabolism at 10 uM after 120 mins by LC-MS/MS analysis in presence of NADPH; assay type: ADME; conditions: read-out: Compound recovery
# CYP1A2, sequence (P05177 whole entry): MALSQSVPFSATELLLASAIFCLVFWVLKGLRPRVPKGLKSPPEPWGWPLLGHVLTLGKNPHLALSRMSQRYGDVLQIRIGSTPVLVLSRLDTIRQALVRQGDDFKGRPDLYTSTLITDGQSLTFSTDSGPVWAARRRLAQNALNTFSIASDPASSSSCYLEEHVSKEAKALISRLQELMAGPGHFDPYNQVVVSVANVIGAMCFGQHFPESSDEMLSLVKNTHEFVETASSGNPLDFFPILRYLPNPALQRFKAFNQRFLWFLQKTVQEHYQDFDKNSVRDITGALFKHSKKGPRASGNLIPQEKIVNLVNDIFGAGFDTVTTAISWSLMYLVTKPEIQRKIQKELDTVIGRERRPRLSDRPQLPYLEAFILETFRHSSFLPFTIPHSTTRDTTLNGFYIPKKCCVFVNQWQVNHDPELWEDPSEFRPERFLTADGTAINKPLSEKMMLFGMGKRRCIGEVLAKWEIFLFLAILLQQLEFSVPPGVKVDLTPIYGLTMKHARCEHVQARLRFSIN
# Cytochrome P450 1B1 = Cytochrome P450 1B1 (Homo sapiens, UniProt Q16678); assay: Activity of human recombinant CYP1B1 assessed as enzyme-mediated 2-hydroxyethyl (1R,3aR,4aR,6R,8aR,9S,9aS)-9-((E)-2-(5-(3-fluorophenyl)pyridin-2-yl)vinyl)-1-methyl-3-oxododecahydronaphtho[2,3-c]furan-6-ylcarbamate formation at 25 uM after 120 mins by LC-MS/MS analysis in presence of NADPH; assay type: ADME; conditions: 2 h
# Cytochrome P450 1B1, sequence (Q16678 whole entry): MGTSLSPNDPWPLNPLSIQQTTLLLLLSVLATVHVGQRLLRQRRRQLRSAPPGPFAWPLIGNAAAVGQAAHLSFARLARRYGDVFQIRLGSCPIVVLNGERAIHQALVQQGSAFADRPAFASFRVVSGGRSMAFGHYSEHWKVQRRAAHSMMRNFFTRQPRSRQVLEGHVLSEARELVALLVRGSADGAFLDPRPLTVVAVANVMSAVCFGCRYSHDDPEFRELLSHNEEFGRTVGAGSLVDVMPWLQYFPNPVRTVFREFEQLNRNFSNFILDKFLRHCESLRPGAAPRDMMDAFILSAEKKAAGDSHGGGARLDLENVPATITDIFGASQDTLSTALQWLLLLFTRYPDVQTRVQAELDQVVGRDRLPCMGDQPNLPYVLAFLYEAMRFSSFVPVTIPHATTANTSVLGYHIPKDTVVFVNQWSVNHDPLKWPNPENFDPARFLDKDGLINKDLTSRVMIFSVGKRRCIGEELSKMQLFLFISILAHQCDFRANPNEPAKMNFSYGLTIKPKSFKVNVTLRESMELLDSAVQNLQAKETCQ
# Cytochrome P450 1A1 = target: T2, Cytochrome P450 1A1 (Homo sapiens, UniProt P04798); assay: Activity of human recombinant CYP1A1 assessed as enzyme-mediated (3R,3aS,4S,4aR,7R,8aR,9aR)-7-amino-4-((E)-2-(5-(3-fluorophenyl)pyridin-2-yl)vinyl)-3-methyldecahydronaphtho[2,3-c]furan-1(3H)-one formation at 25 uM after 120 mins by LC-MS/MS analysis in presence of NADPH; assay type: ADME; conditions: 2 h
# T2 sequence (P04798 whole entry): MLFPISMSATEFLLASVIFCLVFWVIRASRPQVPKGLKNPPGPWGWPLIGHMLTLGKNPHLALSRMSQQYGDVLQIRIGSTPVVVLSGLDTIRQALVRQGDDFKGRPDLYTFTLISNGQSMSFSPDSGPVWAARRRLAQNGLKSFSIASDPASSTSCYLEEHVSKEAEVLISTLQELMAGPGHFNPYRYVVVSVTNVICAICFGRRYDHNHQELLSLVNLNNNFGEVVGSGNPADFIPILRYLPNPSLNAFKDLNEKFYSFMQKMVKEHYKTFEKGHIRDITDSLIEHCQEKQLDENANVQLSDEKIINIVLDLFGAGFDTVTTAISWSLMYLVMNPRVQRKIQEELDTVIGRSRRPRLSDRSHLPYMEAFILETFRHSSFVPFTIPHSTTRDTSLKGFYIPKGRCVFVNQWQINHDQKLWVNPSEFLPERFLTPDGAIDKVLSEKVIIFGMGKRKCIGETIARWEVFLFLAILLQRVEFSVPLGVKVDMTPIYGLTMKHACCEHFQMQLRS
# Cytochrome P450 4F12 = Cytochrome P450 4F12 (Homo sapiens, UniProt Q9HCS2); assay: Activity of human recombinant CYP4F12 assessed as enzyme-mediated 2-hydroxyethyl (1R,3aR,4aR,6R,8aR,9S,9aS)-9-((E)-2-(5-(3-fluorophenyl)pyridin-2-yl)vinyl)-1-methyl-3-oxododecahydronaphtho[2,3-c]furan-6-ylcarbamate formation at 25 uM after 120 mins by LC-MS/MS analysis in presence of NADPH; assay type: ADME; conditions: 2 h
# Cytochrome P450 4F12, sequence (Q9HCS2 whole entry): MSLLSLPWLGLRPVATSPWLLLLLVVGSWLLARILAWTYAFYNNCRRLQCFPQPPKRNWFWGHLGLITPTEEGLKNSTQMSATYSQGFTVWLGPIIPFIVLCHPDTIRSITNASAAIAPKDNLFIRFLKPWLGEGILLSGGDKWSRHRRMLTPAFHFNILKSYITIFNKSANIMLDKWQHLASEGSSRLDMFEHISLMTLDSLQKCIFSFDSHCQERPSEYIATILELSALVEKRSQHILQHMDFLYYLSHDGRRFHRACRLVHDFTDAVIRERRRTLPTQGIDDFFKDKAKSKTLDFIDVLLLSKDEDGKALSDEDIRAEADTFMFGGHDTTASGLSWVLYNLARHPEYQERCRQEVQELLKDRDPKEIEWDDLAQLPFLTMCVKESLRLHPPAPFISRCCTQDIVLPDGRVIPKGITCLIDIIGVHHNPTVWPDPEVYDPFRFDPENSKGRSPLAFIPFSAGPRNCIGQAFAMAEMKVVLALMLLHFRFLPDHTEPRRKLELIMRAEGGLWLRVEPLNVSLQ
# Liver microsome [8] = assay: Drug metabolism in human liver microsomes assessed as (3R,3aS,4S,4aR,7R,8aR,9aR)-7-amino-4-((E)-2-(5-(3-fluorophenyl)pyridin-2-yl)vinyl)-3-methyldecahydronaphtho[2,3-c]furan-1(3H)-one formation at 10 uM after 120 mins by LC-MS/MS analysis; assay type: ADME; conditions: 2 h
compound,measurement,setting,value
C[C@H]1OC(=O)[C@@H]2C[C@@H]3C[C@H](NC(=O)OCCO)CC[C@H]3[C@H](/C=C/c3ccc(-c4cccc(F)c4)cn3)[C@H]12,Drug metabolism,[1],metabolite_detected
same,Drug metabolism,[2],metabolite_detected
same,Drug metabolism,Cytochrome P450 2C18,metabolite_detected
same,Drug metabolism,Cytochrome P450 4F3,metabolite_detected
CCOC(=O)N[C@@H]1CC[C@@H]2[C@@H](C1)C[C@H]1C(=O)O[C@H](C)[C@H]1[C@H]2/C=C/c1ccc(-c2cccc(F)c2)cn1 [VORAPAXAR],Vmax,Liver microsome [3],0.4 pmol/min
same,Drug metabolism,Liver microsome [4],metabolite_not_detected
same,Drug metabolism,[5],metabolite_detected
same,Drug metabolism,Liver microsome [6],metabolite_detected
same,Drug metabolism,Liver microsome [7],metabolite_not_detected
same,"remaining at 2 h, 10 µM",CYP1A2,98.3%
CCOC(=O)N[C@@H]1CC[C@@H]2[C@@H](C1)C[C@H]1C(=O)O[C@H](C)[C@H]1[C@H]2/C=[14CH]/c1ccc(-c2cccc(F)c2)cn1,Drug metabolism,Cytochrome P450 1B1,metabolite_detected
same,Drug metabolism,Cytochrome P450 1A1,metabolite_detected
same,Drug metabolism,Cytochrome P450 4F12,metabolite_detected
same,Drug metabolism,Liver microsome [8],metabolite_not_detected
